The text below walks through data of US20100204203A1, “Chemical Compounds 637: Pyridopyrimidinediones as PDE4 Inhibitors” (priority 2007, published 2010).

Where a name gives a salt, the structure may show the parent alone.

Sequence of recombinant Human Phosphodiesterase B2 (PDE4B2) (Q07343 1-564 isoform Q07343-2): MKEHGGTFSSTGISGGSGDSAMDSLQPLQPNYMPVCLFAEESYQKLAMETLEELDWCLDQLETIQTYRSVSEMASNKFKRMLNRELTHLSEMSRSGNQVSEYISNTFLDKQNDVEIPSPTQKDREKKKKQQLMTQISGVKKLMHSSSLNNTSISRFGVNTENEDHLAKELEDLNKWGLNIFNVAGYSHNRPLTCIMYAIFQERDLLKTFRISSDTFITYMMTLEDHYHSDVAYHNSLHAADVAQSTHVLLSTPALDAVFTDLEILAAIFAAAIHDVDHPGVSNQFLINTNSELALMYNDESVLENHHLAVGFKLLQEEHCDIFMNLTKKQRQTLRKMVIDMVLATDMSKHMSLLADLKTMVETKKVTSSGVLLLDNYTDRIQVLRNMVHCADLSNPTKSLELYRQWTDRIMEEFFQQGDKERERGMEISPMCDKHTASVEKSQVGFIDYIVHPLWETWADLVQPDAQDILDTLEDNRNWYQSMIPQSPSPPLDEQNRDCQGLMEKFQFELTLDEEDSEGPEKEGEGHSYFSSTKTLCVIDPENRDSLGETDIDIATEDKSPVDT

The assay concerns the target recombinant Human Phosphodiesterase B2 (PDE4B2) (Homo sapiens, UniProt Q07343). Kind of assay: Human Phosphodiesterase B2 Radiometric Assay (yttrium silicate SPA beads, [3H]cyclic AMP). It counts as biochemical. Conditions: recombinant human PDE4B2, radiometric SPA assay, 8 nM [3H]cyclic AMP; read-out: PDE4B2 pIC50 (converted). Here is the method: Human Phosphodiesterase B2 Radiometric Assay
The assay uses recombinant Human Phosphodiesterase B2 (PDE4B2) produced in house (PrAZL0163), stored at −20° C. This assay is based on the observation that 5′AMP, the product of the reaction catalysed by PDE4, binds preferentially to yttrium silicate SPA beads (Amersham Biosciences, UK) compared to the substrate, cAMP. Compounds at the appropriate concentration were preincubated at 30 C for 30 min with an assay buffer containing 50 mM HEPES (pH 7.5), 8.3 mM MgCl2, 1.7 mM EGTA, 0.01% (w/v) Brij° 35 and 0.1 mg/mL recombinant PDE4B2. The reaction was started by the addition of [3H]cyclic AMP to give a final concentration of 8 nM, and was stopped 20 minutes after the addition of the substrate by the addition of yttrium silicate SPA beads containing 18 mM Zn SO4. Bound [3H]cyclic AMP was measured using a Topcount NXT (Packard Bioscience, UK). pIC50 values (presented in Table 15) were determined using Xlfit3 curve fitting, using model 205.
As for `CN(CCc1ccc(-c2cccc(-n3c(=O)n([C@H]4CC[C@@H](NC(=O)c5cn6cc(F)ccc6n5)CC4)c(=O)c4cc(F)cnc43)c2)cc1)C(C)(C)C` [Example 101, N-{cis-4-[1-(4′-{2-[tert-butyl(methyl)amino]ethyl}biphenyl-3-yl)-6-fluoro-2,4-dioxo-1,4-dihydropyrido[2,3-d]pyrimidin-3(2H)-yl]cyclohexyl}-6-fluoroimidazo[1,2-a]pyridine-2-carboxamide], the IC50 is 0.1 nM.

As to `COCCNCc1ccc(-c2cccc(-n3c(=O)n([C@H]4CC[C@@H](NC(=O)c5cc(C)n(C)n5)CC4)c(=O)c4cc(F)cnc43)c2)cc1` [Example 117, N-{cis-4-[6-fluoro-1-(4′-{[(2-methoxyethyl)amino]methyl}biphen-yl-3-yl)-2,4-dioxo-1,4-dihydropyrido[2,3-d]pyrimidin-3(2H)-yl]cyclohexyl}-1,5-dimethyl-1H-pyrazole-3-carboxamide], the IC50 is 0.126 nM.

Consider `Cc1cc(C(=O)N[C@H]2CC[C@@H](n3c(=O)c4cc(F)cnc4n(-c4cccc(-c5ccc(CN6CCN(CC(=O)N(C)C)CC6)cc5)c4)c3=O)CC2)nn1C` [Example 216], for which the IC50 is 0.0126 nM.

Take `CN(C)C1(C(=O)N[C@H]2CC[C@@H](n3c(=O)c4cc(F)cnc4n(-c4cccc(-c5ccccc5)c4)c3=O)CC2)CC1` [Example 53, N-[cis-4-(1-biphenyl-3-yl-6-fluoro-2,4-dioxo-1,4-dihydropyrido[2,3-d]pyrimidin-3(2H)-yl)cyclohexyl]-1-(dimethylamino)cyclopropanecarboxamide]: the IC50 is 0.0158 nM.

With `Cc1cc(C(=O)N[C@H]2CC[C@@H](n3c(=O)c4cc(F)cnc4n(-c4cccc(-c5ccc(CN6CCCCC6)cc5)c4)c3=O)CC2)nn1C` [Example 112, N-{cis-4-[6-fluoro-2,4-dioxo-1-[4′-(piperidin-1-ylmethyl)biphenyl-3-yl]-1,4-dihydropyrido[2,3-d]pyrimidin-3(2H)-yl]cyclohexyl}-1,5-dimethyl-1H-pyrazole-3-carboxamide], the IC50 was 0.0501 nM.

With `CC(C)CCNCc1ccc(-c2cccc(-n3c(=O)n([C@H]4CC[C@@H](NC(=O)c5cn6c(n5)CCCC6)CC4)c(=O)c4cc(F)cnc43)c2)cc1` [Example 122, N-{cis-4-[6-fluoro-1-(4′-{[(3-methylbutyl)amino]methyl}biphenyl-3-yl)-2,4-dioxo-1,4-dihydropyrido[2,3-d]pyrimidin-3(2H)-yl]cyclohexyl}-5,6,7,8-tetrahydroimidazo[1,2-a]pyridine-2-carboxamide], the IC50 was 0.0501 nM.

Take `O=C(O)c1ccc(-c2cccc(-n3c(=O)n([C@H]4CC[C@@H](NC(=O)c5cn6cc(F)ccc6n5)CC4)c(=O)c4cc(F)cnc43)c2)cc1` [Example 27, 3′-[6-fiuoro-3-(cis-4-{[(6-fluoroimidazo[1,2-a]pyridin-2-yl)carbonyl]amino}cyclohexyl)-2,4-dioxo-3,4-dihydropyrido[2,3-d]pyrimidin-1(2H)-yl]biphenyl-4-carboxylic acid]: the IC50 was 0.251 nM.

As for `CC(=O)N[C@H]1CC[C@@H](n2c(=O)c3cc(F)cnc3n(-c3cccc(-c4ccc(CN(C)C)cc4)c3)c2=O)CC1` [Example 89, N-{cis-4-[1-{4′-[(dimethylamino)methyl]biphenyl-3-yl}-6-fluoro-2,4-dioxo-1,4-dihydropyrido[2,3-d]pyrimidin-3(2H)-yl]cyclohexyl}acetamide], the IC50 is 2 nM.

For `CNC1CCN(Cc2cc(O)ccc2-c2cccc(-n3c(=O)n([C@H]4CC[C@@H](NC(=O)c5cn6cc(F)ccc6n5)CC4)c(=O)c4cc(F)cnc43)c2)CC1` [Example 73, 6-fluoro-N-{cis-4-[6-fluoro-1-(4′-hydroxy-2′-{[4-(methylamino)piperidin-1-yl]methyl}biphenyl-3-yl)-2,4-dioxo-1,4-dihydropyrido[2,3-d]pyrimidin-3(2H)-yl]cyclohexyl}imidazo[1,2-a]pyridine-2-carboxamide trifluoroacetate salt], the IC50 was 0.0251 nM.

On to `O=C(Nc1ccccc1)c1cccc(-n2c(=O)n([C@H]3CC[C@@H](NC(=O)c4cn5ccccc5n4)CC3)c(=O)c3cc(F)cnc32)c1` [Example 4, N-{cis-4-[1-[3-(anilinocarbonyl)phenyl]-6-fluoro-2,4-dioxo-1,4-dihydropyrido[2,3-d]pyrimidin-3(2H)-yl]cyclohexyl}imidazo[1,2-c]pyridine-2-carboxamide], for which the IC50 is 0.0398 nM.

On to `CN1CCCN(Cc2ccc(-c3cccc(-n4c(=O)n([C@H]5CC[C@@H](NC(=O)C(C)(C)N)CC5)c(=O)c5cc(F)cnc54)c3)cc2)CC1` [Example 311, N-{cis-4-[6-fluoro-1-{4′-[(4-methyl-1,4-diazepan-1-yl)methyl]biphenyl-3-yl}-2,4-dioxo-1,4-dihydropyrido[2,3-d]pyrimidin-3(2H)-yl]cyclohexyl}-2-methylalaninamide], for which the IC50 was 1 nM.

For the compound `Cc1cccc(C(=O)N[C@H]2CC[C@@H](n3c(=O)c4cc(F)cnc4n(-c4cccc(-c5ccc(CN6CCN(C(C)C)CC6)cc5)c4)c3=O)CC2)n1` [Example 242, N-{cis-4-[6-fluoro-1-{4′-[(4-isopropylpiperazin-1-yl)methyl]biphenyl-3-yl}-2,4-dioxo-1,4-di-hydropyrido[2,3-d]pyrimidin-3(2H)-yl]cyclohexyl}-6-methyl-pyridine-2-carboxamide], the IC50 was 0.00631 nM.

For `C[C@@H]1COCCN1Cc1cc(O)ccc1-c1cccc(-n2c(=O)n([C@H]3CC[C@@H](NCc4cn5cc(F)ccc5n4)CC3)c(=O)c3cc(F)cnc32)c1` [Example 316, 6-fluoro-3-(cis-4-{[(6-fluoroimidazo[1,2-a]pyridin-2-yl)methyl]amino}cyclohexyl)-1-(4′-hydroxy-2′-{[(3R)-3-methylmorpholin-4-yl]methyl}biphenyl-3-yl)pyrido[2,3-d]pyrimidine-2,4(1H,3H)-dione], the IC50 is 0.0316 nM.

Take `Cc1cc(C(=O)N[C@H]2CC[C@@H](n3c(=O)c4cc(F)cnc4n(-c4cccc(-c5ccc(CN6CCN(C(C)C)CC6)cc5)c4)c3=O)CC2)no1` [Example 243, N-{cis-4-[6-fluoro-1-{4′-[(4-isopropylpiperazin-1-yl)methyl]biphenyl-3-yl}-2,4-dioxo-1,4-di-hydropyrido[2,3-d]pyrimidin-3(2H)-yl]cyclohexyl}-5-methyl-isoxazole-3-carboxamide]: the IC50 is 0.0398 nM.

As to `CCCN1CCN(Cc2ccc(-c3cccc(-n4c(=O)n([C@H]5CC[C@@H](NC(=O)c6cn7c(n6)CCCC7)CC5)c(=O)c5cc(F)cnc54)c3)cc2)CC1` [Example 227, N-{cis-4-[6-fluoro-2,4-dioxo-1-{4′-[(4-propylpiperazin-1-yl)methyl]biphenyl-3-yl}-1,4-dihydropyrido[2,3-d]pyrimidin-3(2H)-yl]cyclohexyl}-5,6,7,8-tetrahydroimidazo[1,2-a]pyridine-2-carboxamide], the IC50 is 0.00794 nM.

For `C[C@@H]1CN(Cc2ccc(-c3cccc(-n4c(=O)n([C@H]5CC[C@@H](NC(=O)c6cn7cc(F)ccc7n6)CC5)c(=O)c5cc(F)cnc54)c3)cc2)C[C@H](C)N1` [Example 270, N-{cis-4-[1-(4′-{[(3R,5S)-3,5-Dimethylpiperazin-1-yl]methyl}biphenyl-3-yl)-6-fluoro-2,4-dioxo-1,4-dihydropyrido[2,3-d]pyrimidin-3(2H)-yl]cyclohexyl}-6-fluoroimidazo[1,2-a]pyridine-2-carboxamide], the IC50 was 0.00631 nM.

In the case of `Cc1n[nH]cc1C(=O)N[C@H]1CC[C@@H](n2c(=O)c3cc(F)cnc3n(-c3cccc(-c4ccc(CN5CCN(C(C)C)CC5)cc4)c3)c2=O)CC1` [Example 235, N-{cis-4-[6-fluoro-1-{4′-[(4-isopropylpiperazin-1-yl)methyl]biphenyl-3-yl}-2,4-dioxo-1,4-di-hydropyrido[2,3-d]pyrimidin-3(2H)-yl]cyclohexyl}-3-methyl-1H-pyrazole-4-carboxamide], the IC50 was 0.126 nM.

On to `CC(C)N(CCO)Cc1ccc(-c2cccc(-n3c(=O)n([C@H]4CC[C@@H](NC(=O)C5(N(C)C)CC5)CC4)c(=O)c4cc(F)cnc43)c2)cc1` [Example 126, 1-(dimethylamino)-N-{cis-4-[6-fluoro-1-(4′-{[(2-hydroxyethyl)(isopropyl)amino]methyl}biphenyl-3-yl)-2,4-dioxo-1,4-dihydropyrido[2,3-d]pyrimidin-3(2H)-yl]cyclohexyl}cyclopropane-carboxamide], for which the IC50 is 0.0631 nM.

On to `NC1(C(=O)N[C@H]2CC[C@@H](n3c(=O)c4cc(F)cnc4n(-c4cccc(-c5ccccc5)c4)c3=O)CC2)CC1` [Example 344, 1-amino-N-[cis-4-(1-biphenyl-3-yl-6-fluoro-2,4-dioxo-1,4-dihydropyrido[2,3-d]pyrimidin-3(2H)-yl)cyclohexyl]cyclopropanecarboxamide], for which the IC50 is 0.398 nM.

For the compound `O=C(CN1CCNCC1)N[C@H]1CC[C@@H](n2c(=O)c3cc(F)cnc3n(-c3cccc(-c4ccccc4)c3)c2=O)CC1` [Example 106, N-[cis-4-(1-biphenyl-3-yl-6-fluoro-2,4-dioxo-1,4-dihydropyrido[2,3-d]pyrimidin-3(2H)-yl)cyclohexyl]-2-piperazin-1-ylacetamide], the IC50 was 3.16 nM.

Consider `Cc1cc(C)n2nc(C(=O)N[C@H]3CC[C@@H](n4c(=O)c5cc(F)cnc5n(-c5cccc(-c6ccc(CN7CCC(N8CCCCC8)CC7)cc6)c5)c4=O)CC3)cc2n1` [Example 362, N-{cis-4-[1-[4′-(1,4′-bipiperidin-1′-ylmethyl)biphenyl-3-yl]-6-fluoro-2,4-dioxo-1,4-dihydropyrido[2,3-d]pyrimidin-3(2H)-yl]cyclohexyl}-5,7-dimethylpyrazolo[1,5-a]pyrimidine-2-carboxamide], for which the IC50 was 0.0501 nM.
